Data reported in PubChem BioAssay (NCI).
Where “and” joins values, the source holds several entries; their conditions need not be identical. Equal values may be shown once.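 Each compound was tested at five concentrations against cells in 96-well plates for 48 hours. GI50 = concentration required for 50% inhibition of growth. TGI marks complete inhibition of growth.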

What was measured:
Experiment in all cases: DTP human tumour cell line panel, 48 h
MCF7 breast = tested on: MCF7 breast
SK-MEL-28 melanoma = tested on: SK-MEL-28 melanoma
NCI/ADR-RES ovarian = tested on: NCI/ADR-RES ovarian
MDA-MB-231 breast = tested on: MDA-MB-231 breast
SF-268 CNS = tested on: SF-268 CNS
MALME-3M melanoma = tested on: MALME-3M melanoma
NCI-H460 lung = tested on: NCI-H460 lung
CCRF-CEM leukemia = tested on: CCRF-CEM leukemia
HCC-2998 colon = tested on: HCC-2998 colon
TK-10 renal = tested on: TK-10 renal

SMILES	GI50 (MCF7 breast) [µM]	TGI (MCF7 breast) [µM]	GI50 (SK-MEL-28 melanoma) [µM]	TGI (SK-MEL-28 melanoma) [µM]	GI50 (NCI/ADR-RES ovarian) [µM]	TGI (NCI/ADR-RES ovarian) [µM]	GI50 (MDA-MB-231 breast) [µM]	TGI (MDA-MB-231 breast)	GI50 (SF-268 CNS) [µM]	TGI (SF-268 CNS) [µM]	GI50 (MALME-3M melanoma) [µM]	TGI (MALME-3M melanoma) [µM]	GI50 (NCI-H460 lung) [µM]	TGI (NCI-H460 lung)	GI50 (CCRF-CEM leukemia) [µM]	TGI (CCRF-CEM leukemia) [µM]	GI50 (HCC-2998 colon)	TGI (HCC-2998 colon)	GI50 (TK-10 renal) [µM]	TGI (TK-10 renal) [µM]
COc1cc(OC)c(C(=O)/C=C/c2ccc(C#N)cc2)c(OC)c1	1.49	> 50	1.92	7.61	1.4	> 50	2.31	9.32 µM	1.97	46.5	2.23	10.3	1.35	3.94 µM	1.37	15	1.9 µM	6.51 µM	1.71	24
Oc1nc(N2CCOCC2)sc1/C=C1\C=Nc2ccccc21	> 100	> 100	> 100	> 100	> 100	> 100	> 100	> 100 µM	> 100	> 100	> 100	> 100	> 100	> 100 µM	> 100	> 100	> 100 µM	> 100 µM	> 100	> 100
Cc1ccc(-c2cc(C(=O)Nc3ccc(S(=O)(=O)N4CCCCC4)cc3)[nH]n2)c(O)c1	> 100	> 100	> 100	> 100	> 100	> 100	16.8	> 100 µM	> 100	> 100	> 100	> 100	> 100	> 100 µM	59.6	> 100	> 100 µM	> 100 µM	> 100	> 100
O=C(Nc1ccc(I)cc1F)c1cc(Br)ccc1O	0.78	7.76	0.393	2.04	0.613	4.5	0.457	4.73 µM	0.498	8.07	0.379	2	0.452	8.05 µM	1.01	19.5	2.77 µM	10.7 µM	1.62	9.3
CCOC(=O)c1c(NN2CCN(CC(F)(F)F)CC2)oc(/C=C2\C=Nc3ncccc32)c1O	6.37	30.5	11	29.9	19.3	57.8	6.72	32.4 µM	3.04	16.1	13	29.4	3.49	20.2 µM	6.81	> 100	2.7 µM	12.6 µM	3.37	24
COc1ccc(OC)c(N2CC(O)=C(c3nc4ccccc4s3)C2=N)c1	60.8	> 100	49.5	> 100	88.9	> 100	20.6	> 100 µM	> 100	> 100	16.4	82	63	> 100 µM	0.541	> 100	32.5 µM	> 100 µM	> 100	> 100
COc1cc(-n2cc(-c3ccc(Cl)cc3)n(-c3ccccc3)c2=O)cc(OC)c1OC	15.9	56	21.4	> 100	21.5	> 100	16.4	> 68.9 µM	31.2	> 100	21.2	75.2	14.9	> 100 µM	2.67		22.9 µM	> 100 µM	35.5	> 100
COc1ccc(-c2cnc(-c3ccc(OC)cc3)n2-c2cc(OC)c(OC)c(OC)c2)cc1	38.5	> 100	24.4	92	30.3	> 100	18.4	74.3 µM	30.6	> 100	13.3	30.6	30.7	> 100 µM	> 100	> 100	45.7 µM	> 100 µM	20.5	39.2
O=C1OC2(c3ccc(O)cc3Oc3cc(O)ccc32)c2cccc3cccc1c23	19.9	91.3	17.2	34.3	31.7	> 100	14.3	40.3 µM	29.5	> 100	20.5	54.7	23.1	61.4 µM	26.5	> 100	48.4 µM	> 100 µM	27.4	58.1
CCOc1ccc(-c2nc3ccc(-c4nc5ccc(N6CCN(C)CC6)cc5[nH]4)cc3[nH]2)cc1	0.0328	0.38	0.77	2.13	5.4	> 100	1.25	2.6 µM	0.361	1.67	0.0329	0.551	0.489	1.67 µM	0.316	1.87	0.267 µM and 0.196 µM	0.543 µM and 0.415 µM	1.05	2.24
CC[C@]12CN3CCc4c([nH]c5ccccc45)[C@@](C(=O)OC)(c4cc5c(cc4OC)N(C)[C@H]4[C@@](O)(C(=O)OC)[C@H](OC(C)=O)[C@]6(CC)C=CCN7CC[C@]54[C@@H]76)CC(C3)[C@H]1O2 (stereo not given in full)	0.0181	> 33.9		93.1	11.6	> 100		7.02 µM and > 11 µM	0.226	> 68.1	0.0639	> 50	0.167	10.9 µM and > 27.4 µM	0.116	> 50	0.226 µM		0.562	> 100
NC(=O)c1cn(C2CC(O)C(CO)O2)c2ncnc(N)c12 (stereo not given)	0.376	13.9	7.28	> 83.1	2	24.2	3.26	21.2 µM	6.17	> 76.9	0.763		7.69	> 100 µM	0.0888	> 100	1.47 µM	5.62 µM	1.96	19.5
CC1(C)C(=O)/C=C\C(=O)C(C)(C)C2=CC=C(O2)C(C)(C)C(=O)C(Br)C(Br)C(=O)C(C)(C)C2=CC=C1O2 (stereo not given)		> 100		> 100		90.2		> 86.7 µM		> 100		> 100		> 100 µM		11.2		> 100 µM		> 100
O=C(Nc1ccc(Cl)c(C(F)(F)F)c1)Nc1ccc(-c2cccnc2)cc1N1CCC(CO)CC1	2.2	6.96	2.22	5.71	2.85	9.11	1.92	4.34 µM	2.39	8.21	2.27	7.36	2.32	6.24 µM	2.9	> 100	2.31 µM	4.9 µM	1.85	4.76
Cc1nnn(C)c1-c1cnc2c3ccc(C(C)(C)O)cc3n([C@H](c3ccccc3)C3CCOCC3)c2c1	< 0.01	> 100	1.96	> 100	0.26	37.8	< 0.01	24.7 µM	5.22	> 100	0.052	41.3	0.966	> 65.7 µM	0.0663	> 100	0.0356 µM	3.98 µM	< 0.01	11
CC(C)(C)c1cc(C[P+](c2ccccc2)(c2ccccc2)c2ccccc2)cc(C(C)(C)C)c1O	0.27	4.04	0.637	8.21	9.12	33.8	0.473	2.84 µM	0.429	15	0.291	0.947	0.413	2.59 µM	0.545	5.33	0.491 µM	10.2 µM	0.486	3.25
CCOc1ccccc1/C=N\N=C(N/N=C/c1ccccc1OCC)N/N=C/c1ccccc1OCC	0.715	> 100	4.38	> 100	1.7	> 100	1.73	7.52 µM	1.62	> 100	5.69	> 100	1.35	> 100 µM	3.21	> 100	0.826 µM	> 100 µM	2.81	> 100
Nc1nc(Sc2ccc([N+](=O)[O-])c3nonc23)c2ncn(C3OC(CO)C(O)C3O)c2n1 (stereo not given)	0.373	13.6	11.7	26.6	0.47	> 73.2	0.549	14.8 µM	0.938	21.3	9.8	> 42.1	0.311	15.5 µM	0.198	6.65	0.777 µM	3.49 µM	2.42	> 37.2
